{"source": "patent US7638284B2", "about": "“Immunoglobulin A inducing protein and uses therefor” (The Curators of the University of Missouri, priority 2000, dated 2009)", "key": {"[1]": {"system": "IGIP mRNA", "test": "Taqman RT-PCR relative quantification of steady state IGIP mRNA in PMA stimulated cell subsets", "type": "cell-based, bovine", "settings": "5 ng/ml PMA for 18 hours", "excerpt": "Selective IgA deficiency (IgAD) is the most common primary immunodeficiency. […] To determine if abnormalities of IGIP production, function or cellular responsiveness to IGIP are altered in all or a subpopulation of patients with IgAD, a sampling approach is used to screen as many clinical and immunological types of adult subjects as possible for IGIP abnormalities. The relative contribution of PBMC-derived populations can be ranked based on quantitative PCR assessment of resting versus phorbol ester stimulated bovine cells; DC>B cells>T cells>monocytes (see Table VI below)."}, "[2]": {"system": "sIgD+ B cells", "test": "Bioassay for IGIP activity on naive human B cells (CD40L, IL-2, with or without IL-10; ELISA day 14)", "type": "cell-based", "protocol": "Total PBMC's were isolated from normal healthy donors via gradient centrifugation and labeled with biotinylated mouse monoclonal antibody (mAB) to human IgD. Pure sIgD^+ B cells were then isolated with Streptavidin-coated Microbeads using an AutoMACS magnetic cell sorter.\nEnriched sIgD^+ B cells were cultured in RPM1 1640 (supplemented with 10% FBS, 2 mM L-glutamine, 100 U/ml penicillin and 100 μg/ml streptomycin) at 0.8-1.0×10^5 cells/well in 96-well plates. B cells were co-cultured at a 4:1 ratio with mitomycin C treated DAP3 cells stably transfected with CD40L and 50 ng/ml IL-2, with or without 50 ng/ml IL-10. Cell cultures were then stimulated with 0.1, 1.0 or 10 ng/ml IGIP, 1.0 ng/ml TGF-β, or left unstimulated. Culture supernatants were assayed for secreted immunoglobulins (IgM, IgG, and IgA) by ELISA on day 14."}, "[3]": {"system": "peripheral blood B cells", "test": "Bovine B cell bioassay (CD40L-DAP3 cells + IL-2, 7 days) with ELISA for secreted IgA, IgM, IgG", "type": "cell-based", "quoted_text": "Peripheral blood mononuclear cells (PBMCs) were isolated from the peripheral blood of 6-12 month old Holstein or Angus heifers or steers by incubating 30 ml of red cell lysis buffer (0.15 NH4Cl, 10 mM KHCO3, 1 mM EDTA, H2O) with 20 ml of blood for 20 minutes at room temperature. During this incubation, carbonyl iron (0.1 μg/ml) was added to the blood mixture for 20 minutes and then exposed to a magnetic field for 2 minutes to remove phagocytic cells. Following incubation, the cells were washed 3 times with Hank's buffered salt solution (HBSS). B lymphocytes were enriched by panning in the presence of 3% bovine serum albumin (BSA, Fraction V, Sigma, St. Louis, Mo.) in HBSS as described in Severson et al. (1987). Briefly, PBMCs were resuspended at a concentration of 1×10^7 cells/ml in panning solution (3% BSA, 10 mM Tris, 50 μg/ml gentamicin, 0.0025 mM CaCl2, and 0.002 mM MgCl2 in HBSS) and allowed to adhere to plastic tissue culture plates for 1 hour. Non-adherent cells were removed by washing twice with HBSS and adherent cells (enriched B cells) were harvested by vigorous pipetting. 1×10^5 B cells and 2×10^4 mitomycin C treated CD40L-DAP3 transfected cells were cultured for 7 days in 96-well plates in 2001 μl final volume complete medium (RPMI 1640) and 10% immunoglobulin free normal horse serum with 1 ng/ml recombinant huIL-2 (Peppro Tech Inc., Rocky Hill, N.J.) and 10% culture supernatant from cells transfected with library plasmids. Where indicated, pre-committed B cells and residual T cells were depleted by incubating panned B cells for 30 minutes on ice with 30 μl each of mouse anti-bovine IGA (Serotec, Raleigh, N.C.), mouse anti-bovine IgG1 (Serotec), mouse anti-bovine IgG2 (Serotec), and MM1A (anti-CD3 antibody, VMRD, Pullman, Wash.). The cells were washed 3 times with HBSS and sheep anti-mouse IgG Dynabeads (Dynal, Oslow, Norway) were added according to the manufacturer's instructions. The B cells were then placed in a magnetic field and the non-adherent cells removed. These cells were next incubated on ice for 30 minutes with biotinylated goat anti-bovine IgM (Kirkegard and Perry (KPL), Gaithersburg, Md.), washed 3 times and streptavidin beads (Dynal) were added according to the manufacturer's instructions. The cells were placed on a magnetic field and the adherent cells (IgM^+ B cells) were harvested. All bioassays were performed in triplicate in 96-well Corning flat bottom plates.\nOther reagents used in these studies were goat anti-bovine IgM (5 μg/ml, KPL) and porcine TGF-β (1 ng/ml, R & D Systems, Minneapolis, Minn.) that had been acid-activated according to the manufacturer's instructions. […]"}, "[4]": {"settings": "in the presence of IL-10, CD40L + IL-2, IGIP 0.1 to 10 ng/ml, TGF-β 1 ng/ml, 14 days"}}, "note": "Entries after “also recorded” stand apart in the source; their conditions may differ."}
{"molecule": "CCCCCCCCCCCCCC(=O)O[C@@H]1[C@@H](C)[C@@]2(O)[C@@H](C=C(CO)C[C@]3(O)C(=O)C(C)=C[C@@H]23)[C@@H]2C(C)(C)[C@]12OC(C)=O", "note": "[PMA, phorbol myristic acetate]", "values": [{"measurement": "IGIP mRNA fold increase, stimulated vs unstimulated", "setting": "[1]; CD3+ cells", "result": 2.03, "unit": "fold"}, {"measurement": "IGIP mRNA, relative quantification, stimulated cells", "setting": "[1]; CD3+ cells", "result": "4.79 × 10^−5"}, {"measurement": "IGIP mRNA fold increase, stimulated vs unstimulated", "setting": "[1]; CD14+ cells", "result": 0.64, "unit": "fold"}, {"measurement": "IGIP mRNA, relative quantification, stimulated cells", "setting": "[1]; CD14+ cells", "result": "1.00 × 10^−5"}, {"measurement": "IGIP mRNA fold increase, stimulated vs unstimulated", "setting": "[1]; CD21+ cells", "result": 7.6, "unit": "fold"}, {"measurement": "IGIP mRNA, relative quantification, stimulated cells", "setting": "[1]; CD21+ cells", "result": "3.65 × 10^−4"}, {"measurement": "IGIP mRNA fold increase, stimulated vs unstimulated", "setting": "[1]; DC", "result": 7205, "unit": "fold"}, {"measurement": "IGIP mRNA, relative quantification, stimulated cells", "setting": "[1]; DC", "result": 0.263}]}
{"molecule": "IGIP: human homolog of IGIP, 0.1 to 10 ng/ml on naive human IgD+ B cells (Example III) (MKKRSVSGCNITIFAVMFSHLSAGKSPCGNQANVLCISRLEFVQYQS)", "values": [{"measurement": "IgA production by naive IgD+ B cells (in words)", "setting": "[2]; IL-10, CD40L dependent, B-cell-receptor independent", "result": "enhanced IgA production"}, {"measurement": "number of IgA producing cells compared with TGF-β", "setting": "[2]; in the presence of IL-10", "result": "greater number of IgA producing cells"}, {"measurement": "IgA production, level relative to TGF-β", "setting": "[2]; [4]", "result": "4-6 fold"}, {"measurement": "IgG production, level relative to TGF-β", "setting": "[2]; [4]", "result": "4-6 fold"}, {"measurement": "IgM production, level relative to TGF-β", "setting": "[2]; [4]", "result": "4-6 fold"}]}
{"molecule": "TGF-β: porcine TGF-β (1 ng/ml, R & D Systems), acid-activated", "values": [{"measurement": "effect on IgA production (in words)", "setting": "[3]; B cells stimulated via CD40L + IL-2 (CD40 alone)", "result": "less IgA production; also recorded: decreased IgA production"}, {"measurement": "effect on IgA production (in words)", "setting": "[3]; B cells stimulated via CD40 and anti-IgM (BCR)", "result": "induced IgA production"}, {"measurement": "IgA production over that of B cells stimulated via CD40L + anti-IgM + IL-2 alone", "setting": "[3]; Table IV experiment 2, dual stimulation CD40 and BCR", "result": 10, "unit": "fold"}]}
